“And” between values parts separate entries of the source, which are not always exact repeats. Equal values may be shown once.
Columns and labels:
[1] = test system: TPA-induced skin inflammation; experiment: TPA study in mice, CP applied on the non-inflamed ear; type: in vivo, mouse; details: CP applied topically on the non-inflamed ear, tested dose range 0.03–3 µg/ear
Procedure: Figure S6. Effect of topically applied CP on TPA induced ear biopsy weight in mice (upper panel). Treatment scheme can be seen in the lower panel. Ear oedema was induced by TPA on the left ear on day 1, 3, 5, 8 and 10 and CP was topically administered daily on either left or right ear on day 8 to 11. The left ear biopsy weight was measured on day 11. Significant effect was seen also when CP was administered on the right ear at the 2 highest doses, indicating contribution to the local effect, by systemic exposure

[2] = test system: FKBP5 mRNA (GR target engagement); experiment: Minipig skin FKBP5 gene expression after 4 weeks topical treatment; type: in vivo; details: minipigs, LEO 134310 2%, CP 0.05%, BMV 0.1%
Procedure: Each animal was treated for 6 h daily over 28 days with 25 µL of the following topical formulations on an application area of 2.5 cm × 2.5 cm: Vehicle (transcutol:acetone (1:9) with 10% hydroxy-propyl-cellulose); Dermovate cream (CP 0.05%), CP 0.05% in vehicle; Betnovate cream (BMV 0.1%); BMV 0.1% in vehicle; LEO 134310 2% in vehicle. One test field on each animal remained untreated.
RNA was extracted from the biopsies and qPCR was performed using customized TaqMan gene expression assays for FKBP5 and TBP (reference gene).

[3] = Stability in whole blood (dog); type: in vitro ADME; details: 0.1 µM, 37 °C
Procedure: (§1) Compounds were incubated in diluted fresh rat, dog, minipig or human whole blood (heparin stabilized, 50% blood and 50% phosphate buffer with 1% bovine serum albumin) for 120 min at 0.1 µM, at 37 °C and the half-lives were determined. Samples were taken at 0, 15, 30, 60 and 120 min, and reactions were terminated by addition of acetonitrile containing analytical internal standard (IS). Test compound depletion was determined using time-of-flight mass spectrometry in positive ion mode (TOF–MS; AB Sciex API5600). Elimination rate constants (k) were calculated from peak areas and the half-lives was determined (t½ = ln2/k).

[4] = TPA mouse model, blood concentration after topical dose; type: in vivo; details: blood concentrations at 2 h after the last topical dose
Procedure: Treatments were performed by topical application of either vehicle (90% acetone, 10% transcutol), Treatments were applied twice daily on days 8, 9, 10, and once on day 11 (20–10 μL to each side of ear) with at least 5 h between the first and second treatment. TPA challenge on days 8 and 10 was performed at least 1 h after the first treatment. On day 11, animals were sacrificed 2 h after the last dosing. Blood was sampled by cardiac puncture from animals anaesthetized with isoflurane. Thereafter, ear biopsies were taken with a biopsy punch (8 mm diameter), weighed and stored at – 80 °C. Plasma osteocalcin levels were analyzed by EIA (rat-MID, IDS, UK). Effective inhibitory doses (ID50) were determined from a sigmoid I(max) model in Phoenix64, Pharsight, Certara. Therapeutic Index (TI) was calculated either as ID50 for spleen weight reduction or ID50 for blood osteocalcin concentrations, divided by ID50 for ear weight reduction.

[5] = molecular target: T1, human Mineralocorticoid Receptor (Homo sapiens, UniProt P08235); experiment: MR antagonist assay, MR reporter assay; type: cell-based
T1 construct: host or cells: HEK293 (DSMZ ACC 305)
T1 sequence (P08235 726-964 limits assumed): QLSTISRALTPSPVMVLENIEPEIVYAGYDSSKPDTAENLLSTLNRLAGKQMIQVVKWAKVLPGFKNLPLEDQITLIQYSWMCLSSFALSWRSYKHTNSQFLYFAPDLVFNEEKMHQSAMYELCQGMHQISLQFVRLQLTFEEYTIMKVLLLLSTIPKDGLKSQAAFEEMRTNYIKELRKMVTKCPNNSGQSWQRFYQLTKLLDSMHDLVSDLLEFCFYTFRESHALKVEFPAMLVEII
Procedure: Assays were performed at Indigo Biosciences according to standard protocols. In brief, MR-luciferase reporter cells were incubated with medium containing charcoal-stripped fetal bovine serum and incubated with test and reference compounds for 24 h before measuring luminescence. Data were fitted by the means of four parameter logistic regression.
LEO 134310 and LEO 134988 were tested in the human Mineralocorticoid Receptor in cellular GAL4 reporter gene assays. All assays were done in HEK293 cells (DSMZ ACC 305). The plasmids used in Phenex’ GAL4 assay system are derivatives of Stratagene’s M2H plasmids: the reporter plasmid pFR-Luc (contains a synthetic promoter with five tandem repeats of the yeast GAL4 binding sites that control expression of the Photinus pyralis (American firefly) luciferase gene), and pCMV-BD (for fusions of nuclear receptor ligand binding domains to the DNA-binding domain of the yeast protein GAL4). In order to improve experimental accuracy, a second reporter - Renilla reniformis luciferase, driven by a constitutive promoter - was included as internal control. Using the control reporter (pRL-CMV) allows correcting for variations in experimental handling e.g. transfection efficacy, cell viability, pipetting errors, cell lysis efficiency and assay efficiency. The compounds were tested in 9 concentrations in triplicates.

[6] = Stability in whole blood (human); type: in vitro ADME; details: 0.1 µM, 37 °C
Procedure: Anonymized human blood samples were obtained from healthy volunteer donors upon informed written consent and in accordance with national legislation.
as §1

[7] = In vivo pharmacokinetics in rat, i.v.
Procedure: The pharmacokinetic profile of LEO 134310 was determined in rat (male Sprague Dawley) and dog (female Beagle) after intravenous (i.v.) injection at 1 mg/kg. LEO 134310 was administered in isotonic cyclodextrin solution at 0.5 mg/mL (0.1% Citrate buffer pH 4, 20% hydroxy-propyl-β-cyclodextrin in 0.2% NaCl). The i.v. dose was given as a bolus in rats and as a slow injection over 2 min in dogs. The dosing volume was 2 mL/kg. Blood was immediately diluted after sampling in an inhibitory cocktail containing acetylcholinesterase inhibitor Dichlorvos [1 mg/mL in an 8 mg/mL K2EDTA solution in phosphate buffer (PBS)] and samples were stored at − 80 °C until analysis. Samples were analyzed by LC–MS/MS using an API 5500/API 6500 QTRAP mass spectrometer. Pharmacokinetic parameters were derived from a non-compartment model in Phoenix64 (Pharsight, Certara).

[8] = Hepatocyte stability (human); type: in vitro ADME; details: predicted hepatic clearance, well stirred model
Procedure: (§2) Compounds (1.0 µM) were incubated in duplicates with rat, dog, minipig or human hepatocytes (1.0 million cells/mL) in phosphate buffer, in 96-well plates for 120 min (37 °C). Reactions were stopped by addition of cold acetonitrile, at 0, 10, 30, 60, and 120 min, and dispensed into cold acetonitrile to stop the reactions. Plates were centrifuged for 30 min and samples were analysed using liquid chromatography coupled to a time-of-flight mass spectrometer. Compound depletion over time was used to estimate the elimination rate constant, from which the apparent intrinsic clearance (CLapp), and half-life (t½), were calculated.

[9] = Hepatocyte stability (dog); type: in vitro ADME; details: predicted hepatic clearance, well stirred model
Procedure: as §2

[10] = Stability in whole blood (rat); type: in vitro ADME; details: 0.1 µM, 37 °C
Procedure: as §1

Compound	Dose from which significant anti-inflammatory effect due to systemic exposure was seen [1]	FKBP5 gene expression induced in skin [2]	In vitro (blood) half-life [3]	Higher dose needed to achieve systemic exposure comparable to BMV [4]	Higher dose needed to achieve systemic exposure comparable to CP [4]	Antagonist activity on MR [5]	In vitro (blood) half-life [6]	In vivo clearance relative to liver blood flow [7]	In vivo clearance ([7]; i.v. 1 mg/kg)	In vivo terminal half-life ([7]; i.v. 1 mg/kg)	In vitro (hepatocytes) CLH [8]	In vitro (hepatocytes) CLH [9]	In vitro (blood) half-life [10]
CCC(=O)O[C@]1(C(=O)CCl)[C@@H](C)C[C@H]2[C@@H]3CCC4=CC(=O)C=C[C@]4(C)[C@@]3(F)[C@@H](O)C[C@@]21C [CP, Clobetasol Propionate]	≥ 1 µg/ear	higher levels of FKBP5 gene expression	–	–	–	–	–	–	–	–	–	–	–
C[C@H](NC(=O)[C@H]1CCCO1)[C@H](Oc1ccc(C(=O)O[C@H]2CCCN(C(=O)[C@H]3COC(=O)C3)C2)cc1)c1ccc(C2CC2)cc1 [LEO 134310]	–	–	3.3 ± 2.1 (n = 5) min	800 fold	200 fold	no antagonist activity on MR	6 min and 4.4 ± 2.2 (n = 4) min	5 fold	360 ± 85 (n = 3) mL/min/kg	190 ± 171 (n = 3) min	> 18 (n = 1) mL/min/kg	> 30 (n = 1) mL/min/kg	2.2 (2.1, 2.2) (n = 2) min
